Source: PubChem BioAssay (NCI)
Where “and” joins values, the source holds several entries; their conditions need not be identical. Equal values may be shown once.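 Interpolation was linear, between the two tested concentrations surrounding the appropriate level; five concentrations were tested over 48 hours in 96-well plates. GI50 marks 50% less growth. The concentration for full growth arrest is given as TGI.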

Columns and labels:
Experiment in all cases: NCI-60 cell line screen, 48 h
[1] = tested on: COLO 205 colon
[2] = tested on: HCC-2998 colon
[3] = tested on: HOP-92 NSCLC
[4] = tested on: M14 melanoma
[5] = tested on: OVCAR-3 ovarian
[6] = tested on: SK-MEL-28 melanoma
[7] = tested on: SN12C renal
[8] = tested on: SNB-75 CNS
[9] = tested on: SW-620 colon
[10] = tested on: U251 CNS

| SMILES | GI50 [1] [µM] | TGI [1] [µM] | GI50 [2] [µM] | TGI [2] [µM] | GI50 [3] | TGI [3] | TGI [4] [µM] | GI50 [5] [µM] | TGI [5] [µM] | GI50 [6] [µM] | TGI [6] [µM] | GI50 [7] [µM] | TGI [7] [µM] | GI50 [8] [µM] | TGI [8] [µM] | GI50 [9] [µM] | TGI [9] | GI50 [10] [µM] | TGI [10] [µM] | GI50 [4] [µM] |
| --- | --- | --- | --- | --- | --- | --- | --- | --- | --- | --- | --- | --- | --- | --- | --- | --- | --- | --- | --- | --- |
| O=C1NC2(CCCCC2)C(=O)N1CCN(CCCl)CCCl | > 25 | > 250 | > 25 | > 250 | > 25 µM and 22.9 µM | > 25 µM and 48.3 µM | > 25 | > 244 | > 250 | > 25 | > 114 | > 25 | > 250 | > 25 | > 250 | > 25 | > 25 µM and 150 µM | > 25 | > 250 | – |
| COS(C)(=O)=O | – | > 2 | – | > 2 | – | > 2 µM | > 2 | – | > 2 | – | > 2 | – | > 2 | – | > 2 | – | > 2 µM | – | > 2 | – |
| Fc1ccc(-c2nn3ccccc3c2-c2ccncc2)cc1 | > 25 | > 25 | > 25 | > 25 | 4.53 µM | > 25 µM | > 25 | > 25 | > 25 | > 25 | > 25 | > 25 | > 25 | > 19.7 | > 25 | > 25 | > 25 µM | > 25 | > 25 | > 25 |
| c1ccc(Oc2ccc(Nc3ncc(-c4ccccc4)o3)cc2)cc1 | > 25 | > 25 | > 25 | > 25 | 23.9 µM | > 25 µM | > 25 | > 25 | > 25 | > 25 | > 25 | > 25 | > 25 | > 25 | > 25 | > 25 | > 25 µM | > 25 | > 25 | > 25 |
| O=C(Nc1ccc(Cl)cc1C(=O)O)c1ccc([N+](=O)[O-])cc1 | – | 39.4 | – | 39.6 | – | 22.6 µM | 60.8 | – | 56.6 | – | 97.2 | – | > 100 | – | > 100 | – | > 100 µM | – | 51.1 | – |
| COc1ccc2c(c1)CCc1cc(OC)ccc1/[N+]([O-])=[N+]\2[O-] | – | 28.8 | – | 58.2 | – | 27.2 µM | > 46.4 | – | 33.9 | – | 34.1 | – | 31.6 | – | 33.3 | – | 26.1 µM | – | 38.6 | – |
| Nc1ncc(-c2ccc3ncnc(N4CCc5ccc(Cl)cc54)c3c2)cc1C(F)(F)F | 3.68 | 30.5 | 3.43 | > 100 | 0.137 µM | 6.41 µM | 26 | 1.05 | 15.1 | 2.01 | 13.9 | 0.465 | 15.9 | 0.113 | 1.64 | 3.55 | 37.3 µM | 2.65 | 16.6 | 4.63 |
